Source: paper PMC7349874, “High Content Screening Using New U2OS Reporter Cell Models Identifies Harmol Hydrochloride as a Selective and Competitive Antagonist of the Androgen Receptor” (Cells, 2020)
Where a name gives a salt, the structure may show the parent alone.

Target: T1, full-length wild-type AR (hAR) (Homo sapiens, UniProt P10275)
T1 sequence (P10275 1-920): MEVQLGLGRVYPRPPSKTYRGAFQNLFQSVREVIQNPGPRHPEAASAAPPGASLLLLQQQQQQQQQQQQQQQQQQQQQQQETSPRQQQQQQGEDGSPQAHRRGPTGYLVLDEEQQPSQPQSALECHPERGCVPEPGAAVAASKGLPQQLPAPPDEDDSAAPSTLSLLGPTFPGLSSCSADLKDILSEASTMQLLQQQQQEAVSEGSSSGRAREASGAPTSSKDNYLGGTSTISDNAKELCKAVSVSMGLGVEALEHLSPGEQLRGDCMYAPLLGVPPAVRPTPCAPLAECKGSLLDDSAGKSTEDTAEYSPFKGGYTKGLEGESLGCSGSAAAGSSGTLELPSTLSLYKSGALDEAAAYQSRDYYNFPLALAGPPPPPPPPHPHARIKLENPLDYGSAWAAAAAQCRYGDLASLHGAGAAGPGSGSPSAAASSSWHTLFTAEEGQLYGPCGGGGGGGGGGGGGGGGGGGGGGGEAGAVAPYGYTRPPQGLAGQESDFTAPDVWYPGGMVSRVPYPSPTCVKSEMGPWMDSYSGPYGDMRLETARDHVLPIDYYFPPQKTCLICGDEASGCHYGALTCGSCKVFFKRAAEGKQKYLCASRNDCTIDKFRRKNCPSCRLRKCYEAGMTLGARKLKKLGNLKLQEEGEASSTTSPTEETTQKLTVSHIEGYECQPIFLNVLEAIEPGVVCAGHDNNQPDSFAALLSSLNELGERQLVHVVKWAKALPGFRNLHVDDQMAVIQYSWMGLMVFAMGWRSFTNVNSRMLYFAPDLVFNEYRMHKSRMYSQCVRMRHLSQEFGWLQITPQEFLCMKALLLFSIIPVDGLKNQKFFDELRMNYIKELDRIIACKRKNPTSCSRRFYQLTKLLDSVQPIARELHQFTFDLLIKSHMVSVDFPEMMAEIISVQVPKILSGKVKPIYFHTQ
Experiment: Transactivation (luciferase) assay in U2OS-hAR-ARE-Luc reporter cells, screen and validation
Format: cell-based
Settings: 0.3, 1, 3, 10 µM, 16 h; hit = AR transcriptional activity changed by more than 50% dose-dependently, <20% effect in control cells
Description: U2OS-hAR-ARE(Rad9)-Luc and U2OS-hARv7-ARE(PB)-Luc were then used to screen the Prestwick phytochemical library®, containing 320 natural compounds, at four concentrations (0.3, 1, 3, 10 µM) in duplicate.

Compound | Results of 1st screen on AR
C=C(C)[C@@H]1CC[C@]2(C(=O)O)CC[C@]3(C)[C@H](CC[C@@H]4[C@@]5(C)CC[C@H](O)C(C)(C)[C@@H]5CC[C@]43C)[C@@H]12 [Betulinic acid] | No effect
COc1cc(O)cc(O)c1C(=O)/C=C/c1ccccc1 [Cardamonin] | No effect
Evodiamine | No effect
Br.CC[C@H]1CN2CCC1C[C@H]2[C@H](O)c1ccnc2ccc(OC)cc12.O (stereo partly shown) [Hydroquinine hydrobromide hydrate] | No effect
O=C1CCC[C@@H]2[C@H]3CCCN4CCC[C@@H](CN12)[C@@H]34 [Matrine] | No effect
COc1c2c(cc3oc(CO)cc(=O)c13)O[C@H](C(C)(C)O)C2 [Cimifugin] | No effect
O=c1c(-c2ccc(O)cc2)coc2cc(O[C@@H]3O[C@H](CO)[C@@H](O)[C@H](O)[C@H]3O)cc(O)c12 [Genistin] | No effect
CC1=NCCc2c1[nH]c1cc(O)ccc21 [Harmalol hydrochloride dihydrate] | No effect
O=c1c2ccccc2nc2n1CCc1c-2[nH]c2ccccc12 [Rutaecarpine] | No effect
C[C@@H]1O[C@@H](OC[C@H]2O[C@@H](Oc3c(-c4ccc(O)c(O)c4)oc4cc(O)cc(O)c4c3=O)[C@H](O)[C@@H](O)[C@@H]2O)[C@H](O)[C@H](O)[C@H]1O [Rutin] | No effect
O=c1cc(-c2ccc(O)cc2)oc2c([C@@H]3O[C@H](CO)[C@@H](O)[C@H](O)[C@H]3O)c(O)cc(O)c12 [Vitexin] | No effect
COc1ccc2cc3n(c(=O)c2c1OC)CCc1cc2c(cc1-3)OCO2 [Berlambine] | No effect
C[C@@H]1NCCc2cc(O)c(O)cc21 [Salsolinol hydrobromide] | No effect
OCc1ccccc1O[C@@H]1O[C@H](CO)[C@@H](O)[C@H](O)[C@H]1O [Salicin] | No effect
strophantin | active inhibitors of AR transcriptional activity
CC[C@@H](C)C(=O)O[C@H]1[C@H](O)[C@H]2[C@@H](CN3C[C@@H](C)CC[C@H]3[C@@]2(C)O)[C@@H]2C[C@]34O[C@]5(O)[C@@H](OC(=O)[C@@](C)(O)CC)CC[C@@]3(C)[C@@H]5[C@@H](OC(C)=O)[C@@H](OC(C)=O)[C@H]4[C@@]21O [Protoveratrine A] | No effect
COc1ccc(-c2cc(=O)c3c(O)cc(O)cc3o2)cc1 [Acacetin] | No effect
C=CCc1ccc(O)c(-c2ccc(O)c(CC=C)c2)c1 [honokiol] | active inhibitors of AR transcriptional activity
C[C@@H]1CC[C@@]2(NC1)O[C@H]1C[C@H]3[C@@H]4CC=C5C[C@@H](O)CC[C@]5(C)[C@H]4CC[C@]3(C)[C@H]1[C@@H]2C [Solasodine] | No effect
C[C@H]1[C@H]2CC[C@H]3[C@@H]4CC=C5C[C@@H](N(C)C)CC[C@]5(C)[C@H]4CC[C@]23CN1C [Conessine] | No effect
COc1ccc2[nH]c3c(c2c1)CCN=C3C [methoxy-6-harmalan] | inactive
O=C1Nc2ccccc2/C1=C1/Nc2ccccc2C1=O [Indirubin] | No effect
CN1[C@@H]2CCC[C@H]1CC(=O)C2.Cl [Pseudopelletierine hydrochloride] | No effect
CN1CCc2cc3c(c4c2C1Cc1ccccc1-4)OCO3 (stereo not shown) [remerine] | active inhibitors of AR transcriptional activity
C=C(C)[C@@H]1[C@H]2OC(=O)[C@@H]1[C@]1(O)C[C@H]3O[C@]34C(=O)O[C@H]2[C@]14C [Picrotoxinin] | No effect
Retrorsine | No effect
NC(N)=NOCC[C@H](N)C(=O)O.O.O=S(=O)(O)O [Canavanine sulfate monohydrate (L,+)] | No effect

Same assay, conditions: 0.3, 1, 3, 10 µM, 16 h; hit = AR transcriptional activity changed by more than 50% dose-dependently, <20% effect in control cells; listed as harmalol

Compound | Results of 1st screen on AR
CC1=NCCc2c1[nH]c1cc(O)ccc21 [Harmalol hydrochloride dihydrate] | inactive
